Ends that are not written are not given here.
System: anthrax lethal toxin (PA and LF), RAW264.7 cells

HTSTYWWLDGAP
concentration up to which cytotoxicity was not inhibited: > 2000 µM
